{"source": "the kinase profiling compilation of Christmann-Franck et al. (2016)", "test_in_all_cases": "KINOMEscan competition binding", "conditions_in_all_cases": "compound 2.0 µM", "key": {"CAMK2G (human)": {"target": "CAMK2G (human) (UniProt Q13555)"}, "NEK11 (human)": {"target": "NEK11 (human) (UniProt Q8NG66)"}, "CDK17 (human)": {"target": "CDK17 (human) (UniProt Q00537)"}, "BMPR1A (human)": {"target": "BMPR1A (human) (UniProt P36894)"}, "PKMYT1 (human)": {"target": "PKMYT1 (human) (UniProt Q99640)"}, "NUAK1 (human)": {"target": "NUAK1 (human) (UniProt O60285)"}, "[1]": {"tested_on": "EGFR (human), P00533 [T790M/L858R]"}, "PKN3 (M.tuberculosis)": {"target": "PKN3 (M.tuberculosis) (UniProt Q6P5Z2)"}, "MAP3K10 (human)": {"target": "MAP3K10 (human) (UniProt Q02779)"}, "STK3 (human)": {"target": "STK3 (human) (UniProt Q13188)"}, "CLK1 (human)": {"target": "CLK1 (human) (UniProt P49759)"}, "PIP4K2C (human)": {"target": "PIP4K2C (human) (UniProt Q8TBX8)"}, "STK32A (human)": {"target": "STK32A (human) (UniProt Q8WU08)"}, "MAP2K5 (human)": {"target": "MAP2K5 (human) (UniProt Q13163)"}, "RPS6KA3 KD1 (human)": {"target": "RPS6KA3 KD1 (human) (UniProt P51812)"}, "PIP5K1A (human)": {"target": "PIP5K1A (human) (UniProt Q99755)"}, "ULK1 (human)": {"target": "ULK1 (human) (UniProt O75385)"}, "EPHA5 (human)": {"target": "EPHA5 (human) (UniProt P54756)"}, "GRK1 (human)": {"target": "GRK1 (human) (UniProt Q15835)", "sequence (Q15835 whole entry, looked up)": "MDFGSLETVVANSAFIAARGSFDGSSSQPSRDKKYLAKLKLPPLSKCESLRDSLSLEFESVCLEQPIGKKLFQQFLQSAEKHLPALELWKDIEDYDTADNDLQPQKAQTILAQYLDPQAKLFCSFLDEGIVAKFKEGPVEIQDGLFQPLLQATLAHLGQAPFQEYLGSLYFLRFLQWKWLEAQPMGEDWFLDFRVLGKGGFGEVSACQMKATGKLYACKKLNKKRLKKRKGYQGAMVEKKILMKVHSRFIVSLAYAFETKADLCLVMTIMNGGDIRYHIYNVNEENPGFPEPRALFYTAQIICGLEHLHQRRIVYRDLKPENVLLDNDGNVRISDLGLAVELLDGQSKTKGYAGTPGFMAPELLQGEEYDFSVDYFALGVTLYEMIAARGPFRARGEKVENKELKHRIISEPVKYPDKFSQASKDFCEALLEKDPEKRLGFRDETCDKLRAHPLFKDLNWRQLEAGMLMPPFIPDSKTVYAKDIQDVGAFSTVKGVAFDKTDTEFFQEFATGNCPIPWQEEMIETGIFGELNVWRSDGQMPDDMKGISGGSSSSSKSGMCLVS"}, "CSNK1G3 (human)": {"target": "CSNK1G3 (human) (UniProt Q9Y6M4)"}, "CPK1 (P.falciparum)": {"tested_on": "CPK1 (P.falciparum)"}, "NEK7 (human)": {"target": "NEK7 (human) (UniProt Q8TDX7)"}, "PAK3 (human)": {"target": "PAK3 (human) (UniProt O75914)", "sequence (O75914 whole entry, looked up)": "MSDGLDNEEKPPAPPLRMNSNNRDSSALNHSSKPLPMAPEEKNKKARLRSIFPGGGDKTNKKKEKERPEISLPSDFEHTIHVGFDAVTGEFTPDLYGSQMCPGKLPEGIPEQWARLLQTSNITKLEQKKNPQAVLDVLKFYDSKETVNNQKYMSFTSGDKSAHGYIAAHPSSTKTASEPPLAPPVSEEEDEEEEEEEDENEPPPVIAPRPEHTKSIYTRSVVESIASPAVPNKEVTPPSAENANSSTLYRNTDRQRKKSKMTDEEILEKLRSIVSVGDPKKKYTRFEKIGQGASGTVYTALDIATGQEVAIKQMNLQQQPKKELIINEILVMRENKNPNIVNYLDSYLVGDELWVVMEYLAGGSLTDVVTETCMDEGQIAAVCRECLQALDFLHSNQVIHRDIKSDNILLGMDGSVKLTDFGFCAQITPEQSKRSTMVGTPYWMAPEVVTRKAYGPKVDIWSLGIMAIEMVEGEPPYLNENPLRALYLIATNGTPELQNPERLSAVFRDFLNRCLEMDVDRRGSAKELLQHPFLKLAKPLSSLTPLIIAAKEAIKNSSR"}, "DYRK1A (human)": {"target": "DYRK1A (human) (UniProt Q13627)"}, "PRKAA1 (human)": {"target": "PRKAA1 (human) (UniProt Q13131)"}, "RPS6KA2 KD1 (human)": {"target": "RPS6KA2 KD1 (human) (UniProt Q15349)"}, "RPS6KA6 KD1 (human)": {"target": "RPS6KA6 KD1 (human) (UniProt Q9UK32)", "sequence (Q9UK32 whole entry, looked up)": "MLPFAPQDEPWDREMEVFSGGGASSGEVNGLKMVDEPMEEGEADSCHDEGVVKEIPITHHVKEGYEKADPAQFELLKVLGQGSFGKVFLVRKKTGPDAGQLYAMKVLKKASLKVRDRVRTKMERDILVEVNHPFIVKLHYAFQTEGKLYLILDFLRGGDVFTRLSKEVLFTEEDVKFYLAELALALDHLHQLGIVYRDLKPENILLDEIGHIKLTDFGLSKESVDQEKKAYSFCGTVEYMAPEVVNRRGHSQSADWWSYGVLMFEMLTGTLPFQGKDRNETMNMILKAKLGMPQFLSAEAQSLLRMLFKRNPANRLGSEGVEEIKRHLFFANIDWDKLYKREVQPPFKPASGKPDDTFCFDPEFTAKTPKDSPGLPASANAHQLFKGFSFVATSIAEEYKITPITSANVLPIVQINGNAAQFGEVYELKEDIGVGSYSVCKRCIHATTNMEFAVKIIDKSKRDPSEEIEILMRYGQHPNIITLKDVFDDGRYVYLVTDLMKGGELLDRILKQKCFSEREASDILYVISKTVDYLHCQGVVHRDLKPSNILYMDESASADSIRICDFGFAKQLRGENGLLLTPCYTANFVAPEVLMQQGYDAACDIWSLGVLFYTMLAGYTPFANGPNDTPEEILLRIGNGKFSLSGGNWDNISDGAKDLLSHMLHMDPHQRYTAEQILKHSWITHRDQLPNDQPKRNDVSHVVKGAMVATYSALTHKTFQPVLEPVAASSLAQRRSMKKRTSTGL"}, "CDK4 CCND3 (human)": {"target": "CDK4 CCND3 (human) (UniProt P11802+P30281)"}, "STK39 (human)": {"target": "STK39 (human) (UniProt Q9UEW8)"}, "STK36 (human)": {"target": "STK36 (human) (UniProt Q9NRP7)"}, "RIPK4 (human)": {"target": "RIPK4 (human) (UniProt P57078)"}, "GAK (human)": {"target": "GAK (human) (UniProt O14976)"}, "DYRK1B (human)": {"target": "DYRK1B (human) (UniProt Q9Y463)", "sequence (Q9Y463 whole entry, looked up)": "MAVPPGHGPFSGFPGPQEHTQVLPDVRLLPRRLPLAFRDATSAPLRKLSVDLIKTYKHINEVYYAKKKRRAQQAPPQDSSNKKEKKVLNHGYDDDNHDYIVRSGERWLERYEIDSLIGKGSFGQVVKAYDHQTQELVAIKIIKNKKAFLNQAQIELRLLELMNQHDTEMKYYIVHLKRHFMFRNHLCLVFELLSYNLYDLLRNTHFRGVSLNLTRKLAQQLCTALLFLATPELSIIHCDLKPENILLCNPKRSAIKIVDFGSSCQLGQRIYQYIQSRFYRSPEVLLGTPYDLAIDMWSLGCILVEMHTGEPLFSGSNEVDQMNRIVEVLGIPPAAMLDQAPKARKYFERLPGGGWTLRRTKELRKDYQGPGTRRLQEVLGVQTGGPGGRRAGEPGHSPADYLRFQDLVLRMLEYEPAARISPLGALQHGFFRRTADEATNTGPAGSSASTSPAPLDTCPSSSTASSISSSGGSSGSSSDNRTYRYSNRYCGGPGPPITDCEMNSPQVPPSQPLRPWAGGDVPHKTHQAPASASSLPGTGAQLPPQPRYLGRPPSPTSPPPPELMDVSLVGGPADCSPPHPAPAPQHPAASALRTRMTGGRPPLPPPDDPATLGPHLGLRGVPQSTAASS"}, "CHUK (human)": {"target": "CHUK (human) (UniProt O15111)"}, "NEK5 (human)": {"target": "NEK5 (human) (UniProt Q6P3R8)", "sequence (Q6P3R8 whole entry, looked up)": "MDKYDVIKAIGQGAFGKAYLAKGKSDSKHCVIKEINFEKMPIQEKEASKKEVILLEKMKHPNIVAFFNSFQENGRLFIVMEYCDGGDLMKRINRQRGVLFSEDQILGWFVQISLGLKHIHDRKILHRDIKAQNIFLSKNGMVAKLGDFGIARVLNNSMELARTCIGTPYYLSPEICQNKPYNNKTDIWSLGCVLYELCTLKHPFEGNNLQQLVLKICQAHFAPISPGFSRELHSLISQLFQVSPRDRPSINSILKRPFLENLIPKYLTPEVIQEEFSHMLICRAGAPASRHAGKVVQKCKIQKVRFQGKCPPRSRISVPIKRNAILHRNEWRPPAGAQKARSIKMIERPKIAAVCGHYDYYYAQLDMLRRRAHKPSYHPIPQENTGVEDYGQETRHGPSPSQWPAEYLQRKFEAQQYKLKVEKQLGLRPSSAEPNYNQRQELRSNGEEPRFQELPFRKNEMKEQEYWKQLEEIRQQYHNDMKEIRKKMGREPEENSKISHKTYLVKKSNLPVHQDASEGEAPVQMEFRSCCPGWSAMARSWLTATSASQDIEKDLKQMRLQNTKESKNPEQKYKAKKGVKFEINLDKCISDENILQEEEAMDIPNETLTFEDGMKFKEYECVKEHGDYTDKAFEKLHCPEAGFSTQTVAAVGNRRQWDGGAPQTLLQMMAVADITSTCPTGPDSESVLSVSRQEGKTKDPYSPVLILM"}, "GRK7 (human)": {"target": "GRK7 (human) (UniProt Q8WTQ7)"}, "HIPK1 (human)": {"target": "HIPK1 (human) (UniProt Q86Z02)"}, "MTOR (human)": {"target": "MTOR (human) (UniProt P42345)"}, "CSNK1D (human)": {"target": "CSNK1D (human) (UniProt P48730)"}, "FLT1 (human)": {"target": "FLT1 (human) (UniProt P17948)", "sequence (P17948 whole entry, looked up)": "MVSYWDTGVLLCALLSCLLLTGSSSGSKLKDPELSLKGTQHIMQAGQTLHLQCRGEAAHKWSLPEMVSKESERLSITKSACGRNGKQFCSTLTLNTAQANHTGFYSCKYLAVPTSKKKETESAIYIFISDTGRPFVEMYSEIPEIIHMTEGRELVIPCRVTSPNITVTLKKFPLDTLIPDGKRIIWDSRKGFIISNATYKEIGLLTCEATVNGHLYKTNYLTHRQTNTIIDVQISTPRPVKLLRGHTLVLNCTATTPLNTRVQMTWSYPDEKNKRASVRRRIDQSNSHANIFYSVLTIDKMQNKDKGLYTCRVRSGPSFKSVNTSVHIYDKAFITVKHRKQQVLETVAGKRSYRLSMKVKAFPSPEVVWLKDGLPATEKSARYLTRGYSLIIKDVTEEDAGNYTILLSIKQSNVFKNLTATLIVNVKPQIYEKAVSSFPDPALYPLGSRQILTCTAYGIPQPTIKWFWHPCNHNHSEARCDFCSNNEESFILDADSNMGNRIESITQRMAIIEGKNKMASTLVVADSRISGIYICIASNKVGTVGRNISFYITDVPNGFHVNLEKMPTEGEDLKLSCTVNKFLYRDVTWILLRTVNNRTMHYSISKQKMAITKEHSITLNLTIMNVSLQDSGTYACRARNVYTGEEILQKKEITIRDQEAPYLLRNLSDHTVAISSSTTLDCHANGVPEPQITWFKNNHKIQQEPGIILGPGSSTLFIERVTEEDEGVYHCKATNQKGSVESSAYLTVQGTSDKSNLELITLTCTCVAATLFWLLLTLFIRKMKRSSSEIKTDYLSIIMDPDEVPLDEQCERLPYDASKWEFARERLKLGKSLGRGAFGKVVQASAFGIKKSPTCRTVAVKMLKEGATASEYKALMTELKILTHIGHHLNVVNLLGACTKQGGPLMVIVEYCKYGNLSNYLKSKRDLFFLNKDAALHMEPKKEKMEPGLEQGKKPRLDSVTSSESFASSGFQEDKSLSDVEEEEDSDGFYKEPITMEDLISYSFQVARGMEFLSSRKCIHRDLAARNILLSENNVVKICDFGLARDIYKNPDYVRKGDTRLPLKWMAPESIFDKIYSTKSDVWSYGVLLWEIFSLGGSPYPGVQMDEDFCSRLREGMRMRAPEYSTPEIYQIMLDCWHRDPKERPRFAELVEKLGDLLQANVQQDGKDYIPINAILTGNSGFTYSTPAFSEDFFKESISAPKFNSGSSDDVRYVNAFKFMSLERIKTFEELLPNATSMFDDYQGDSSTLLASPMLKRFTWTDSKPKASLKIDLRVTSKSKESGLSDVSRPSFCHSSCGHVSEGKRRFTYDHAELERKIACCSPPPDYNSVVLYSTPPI"}, "PRKCD (human)": {"target": "PRKCD (human) (UniProt Q05655)"}, "MAP2K2 (human)": {"target": "MAP2K2 (human) (UniProt P36507)", "sequence (P36507 whole entry, looked up)": "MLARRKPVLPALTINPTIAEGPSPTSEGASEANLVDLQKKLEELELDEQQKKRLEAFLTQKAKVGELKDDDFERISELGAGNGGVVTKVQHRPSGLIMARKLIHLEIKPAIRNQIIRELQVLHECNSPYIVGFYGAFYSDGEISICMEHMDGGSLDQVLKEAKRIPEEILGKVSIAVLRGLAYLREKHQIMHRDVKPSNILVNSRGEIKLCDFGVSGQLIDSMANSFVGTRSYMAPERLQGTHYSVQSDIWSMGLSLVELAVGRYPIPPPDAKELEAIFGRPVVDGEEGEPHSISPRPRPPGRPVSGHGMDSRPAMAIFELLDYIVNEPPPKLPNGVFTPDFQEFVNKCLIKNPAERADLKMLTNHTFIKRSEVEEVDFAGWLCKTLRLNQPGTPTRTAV"}, "STK11 (human)": {"target": "STK11 (human) (UniProt Q15831)"}}}
{"smiles": "N#Cc1ccc2ncnc(NCCc3ccc4ccccc4c3)c2c1", "values": [{"measurement": "kinase still bound, per cent of control", "setting": "CAMK2G (human)", "result": 100, "unit": "%"}, {"measurement": "kinase still bound, per cent of control", "setting": "NEK11 (human)", "result": 99, "unit": "%"}, {"measurement": "kinase still bound, per cent of control", "setting": "CDK17 (human)", "result": 90, "unit": "%"}, {"measurement": "kinase still bound, per cent of control", "setting": "BMPR1A (human)", "result": 100, "unit": "%"}, {"measurement": "kinase still bound, per cent of control", "setting": "PKMYT1 (human)", "result": 100, "unit": "%"}, {"measurement": "kinase still bound, per cent of control", "setting": "NUAK1 (human)", "result": 75, "unit": "%"}, {"measurement": "kinase still bound, per cent of control", "setting": "[1]", "result": 100, "unit": "%"}, {"measurement": "kinase still bound, per cent of control", "setting": "PKN3 (M.tuberculosis)", "result": 100, "unit": "%"}, {"measurement": "kinase still bound, per cent of control", "setting": "MAP3K10 (human)", "result": 100, "unit": "%"}, {"measurement": "kinase still bound, per cent of control", "setting": "STK3 (human)", "result": 74, "unit": "%"}, {"measurement": "kinase still bound, per cent of control", "setting": "CLK1 (human)", "result": 56, "unit": "%"}, {"measurement": "kinase still bound, per cent of control", "setting": "PIP4K2C (human)", "result": 91, "unit": "%"}, {"measurement": "kinase still bound, per cent of control", "setting": "STK32A (human)", "result": 100, "unit": "%"}, {"measurement": "kinase still bound, per cent of control", "setting": "MAP2K5 (human)", "result": 85, "unit": "%"}, {"measurement": "kinase still bound, per cent of control", "setting": "RPS6KA3 KD1 (human)", "result": 97, "unit": "%"}, {"measurement": "kinase still bound, per cent of control", "setting": "PIP5K1A (human)", "result": 100, "unit": "%"}, {"measurement": "kinase still bound, per cent of control", "setting": "ULK1 (human)", "result": 100, "unit": "%"}, {"measurement": "kinase still bound, per cent of control", "setting": "EPHA5 (human)", "result": 100, "unit": "%"}, {"measurement": "kinase still bound, per cent of control", "setting": "GRK1 (human)", "result": 100, "unit": "%"}, {"measurement": "kinase still bound, per cent of control", "setting": "CSNK1G3 (human)", "result": 81, "unit": "%"}, {"measurement": "kinase still bound, per cent of control", "setting": "CPK1 (P.falciparum)", "result": 95, "unit": "%"}, {"measurement": "kinase still bound, per cent of control", "setting": "NEK7 (human)", "result": 100, "unit": "%"}, {"measurement": "kinase still bound, per cent of control", "setting": "PAK3 (human)", "result": 100, "unit": "%"}, {"measurement": "kinase still bound, per cent of control", "setting": "DYRK1A (human)", "result": 100, "unit": "%"}, {"measurement": "kinase still bound, per cent of control", "setting": "PRKAA1 (human)", "result": 89, "unit": "%"}, {"measurement": "kinase still bound, per cent of control", "setting": "RPS6KA2 KD1 (human)", "result": 100, "unit": "%"}, {"measurement": "kinase still bound, per cent of control", "setting": "RPS6KA6 KD1 (human)", "result": 100, "unit": "%"}, {"measurement": "kinase still bound, per cent of control", "setting": "CDK4 CCND3 (human)", "result": 100, "unit": "%"}, {"measurement": "kinase still bound, per cent of control", "setting": "STK39 (human)", "result": 98, "unit": "%"}, {"measurement": "kinase still bound, per cent of control", "setting": "STK36 (human)", "result": 100, "unit": "%"}, {"measurement": "kinase still bound, per cent of control", "setting": "RIPK4 (human)", "result": 100, "unit": "%"}, {"measurement": "kinase still bound, per cent of control", "setting": "GAK (human)", "result": 100, "unit": "%"}, {"measurement": "kinase still bound, per cent of control", "setting": "DYRK1B (human)", "result": 96, "unit": "%"}, {"measurement": "kinase still bound, per cent of control", "setting": "CHUK (human)", "result": 74, "unit": "%"}, {"measurement": "kinase still bound, per cent of control", "setting": "NEK5 (human)", "result": 70, "unit": "%"}, {"measurement": "kinase still bound, per cent of control", "setting": "GRK7 (human)", "result": 100, "unit": "%"}, {"measurement": "kinase still bound, per cent of control", "setting": "HIPK1 (human)", "result": 100, "unit": "%"}, {"measurement": "kinase still bound, per cent of control", "setting": "MTOR (human)", "result": 80, "unit": "%"}, {"measurement": "kinase still bound, per cent of control", "setting": "CSNK1D (human)", "result": 99, "unit": "%"}, {"measurement": "kinase still bound, per cent of control", "setting": "FLT1 (human)", "result": 89, "unit": "%"}, {"measurement": "kinase still bound, per cent of control", "setting": "PRKCD (human)", "result": 91, "unit": "%"}, {"measurement": "kinase still bound, per cent of control", "setting": "MAP2K2 (human)", "result": 80, "unit": "%"}, {"measurement": "kinase still bound, per cent of control", "setting": "STK11 (human)", "result": 100, "unit": "%"}]}
